Measured values taken from article PMC3038857, “Using Nuclear Receptor Activity to Stratify Hepatocarcinogens” (PLoS ONE, 2011).
Where two headings read alike, the source gives them in different places.

How the values were obtained:
[1] = target: T1, RXRa (RXRA) (Homo sapiens, UniProt P19793); assay: NCGC_RXRa_Agonist: GAL4 BLAM Reporter gene assay: RXRa; assay type: cell-based; settings: agonist mode
T1 sequence (P19793 227-462 limits assumed): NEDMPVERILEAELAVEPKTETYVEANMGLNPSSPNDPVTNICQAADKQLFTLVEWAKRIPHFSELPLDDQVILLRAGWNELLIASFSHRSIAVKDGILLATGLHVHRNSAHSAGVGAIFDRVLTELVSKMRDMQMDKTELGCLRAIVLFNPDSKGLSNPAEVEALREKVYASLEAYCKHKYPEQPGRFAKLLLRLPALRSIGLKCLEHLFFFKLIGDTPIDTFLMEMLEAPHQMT
Method: (§1) These assays measure binding constants and enzyme inhibition values for nuclear receptors. The targets include [drawing 67] , [drawing 68] , [drawing 69] , [drawing 70] , [drawing 71] , [drawing 72] , [drawing 73] , [drawing 74] , [drawing 75] and [drawing 76] . Each of the nuclear receptor targets was measured in agonist mode. Assays were run at the NIH Chemical Genomics Center (Rockville, MD).
(§2) Cell-based HTS Assays: These assays measuring binding constants and enzyme inhibition values for nuclear receptors. The targets include AR, ER, FXR, LXR, PPARα, PPARδ, PPARγ, RXRα, RXRβ and PXR. Each of the nuclear receptor targets was measured in both agonist and antagonist mode, but the antagonist data is still undergoing analysis due to possible interference between cytotoxicity and assay activity, so antagonist mode data were not used in the present analysis. Assays were run at the NIH Chemical Genomics Center (Rockville, MD) as part of the Tox21 collaboration. […] The R^2 was required to be ≥0.5. Values where only the highest concentration exceeded 50% activity were excluded to eliminate weak or false positives. Detailed description of the methods, data and analysis methods for this dataset will be presented in a separate publication.

[2] = test system: ABCB1; assay: CLZD_ABCB1: Change in expression of ABCB1 (primary human hepatocytes); assay type: cell-based; settings: 24 hr
Method: (§3) This is a collection of multiplexed gene expression assays focused on Phase I and II xenobiotic metabolizing enzymes and transporters. Human primary cell cultures were treated with chemicals at 5 concentrations (0.004-40 [drawing 42] M) for 6, 24 and 48 hr. Concentration- and time-response profiles of chemicals were measured by the expression of key nuclear receptor target genes, activities of CYP1A enzymes (EROD), and cell morphology. Fourteen gene targets were monitored by quantitative nuclease protection assay including: six representative cytochrome P-450 genes, four hepatic transporters, three Phase II conjugating enzymes, and one endogenous metabolism gene involved in cholesterol synthesis. The target genes associated with nuclear receptor pathways are as follows: [drawing 43] and [drawing 44] with [drawing 45]; [drawing 46] , [drawing 47] , [drawing 48] , [drawing 49] , [drawing 50] and [drawing 51] with [drawing 52]; [drawing 53] , [drawing 54] , [drawing 55] and [drawing 56] with [drawing 57]; [drawing 58] with [drawing 59]; and [drawing 60] with [drawing 61] . Assays were run in primary human hepatocyte cultures by CellzDirect Invitrogen Inc. (Durham, NC), in collaboration with EPA.
(§4) Multiplexed Gene Expression in Human Primary Hepatocytes: This is a collection of multiplexed gene expression assays focused on Phase I and II metabolic enzymes and transporters. […] Fourteen gene targets were monitored by quantitative nuclease protection assay: six representative cytochrome P450 genes, four hepatic transporters, three Phase II conjugating enzymes, and one endogenous metabolism gene involved in cholesterol synthesis. Cells were exposed at 5 concentrations (0.004-40 µM) for 6, 24 or 48 hr. Gene targets are sentinels for five nuclear receptor signaling pathways: AhR, CAR, PXR, FXR, and PPARα. All gene are associated with nuclear receptor pathways: CYP1A1 and CYP1A2 with AHR; ABCB1, ABCG2, CYP2B6, CYP2C9, CYP2C19 and UGT1A1 with CAR; CYP3A4, GSTA2, SLCO1B1 and SULT2A1 with PXR; HMGCS2 with PPARA; and ABCB11 with FXR. […] Detailed description of the methods, data and analysis methods for this dataset will be presented in a separate publication.

[3] = test system: ABCB11; assay: CLZD_ABCB11: Change in expression of ABCB11 (primary human hepatocytes); assay type: cell-based; settings: 24 hr
Method: as §3, §4

[4] = test system: CYP1A1; assay: CLZD_CYP1A1: Change in expression of CYP1A1 (primary human hepatocytes); assay type: cell-based; settings: 24 hr
Summary of the method: (§5)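 Read-out: mRNA change by multiplexed quantitative nuclease protection assay. Primary human hepatocytes; 5 concentrations, 0.004-40 µM; exposures 6, 24, 48 hr.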

[5] = test system: CYP1A2; assay: CLZD_CYP1A2: Change in expression of CYP1A2 (primary human hepatocytes); assay type: cell-based; settings: 24 hr
Summary of the method: as §5

[6] = test system: CYP2B6; assay: CLZD_CYP2B6: Change in expression of CYP2B6 (primary human hepatocytes); assay type: cell-based; settings: 24 hr
Summary of the method: as §5

[7] = test system: Rat Liver; settings: ref ToxRefDB, cited from earlier work
[8] = test system: Rat Liver; settings: ref ToxRefDB, cited from earlier work; remark: listed apart in the source
[9] = test system: Rat Liver; settings: ref ToxRefDB, cited from earlier work; remark: listed apart in the source
[10] = target: T2, CAR (NR1I3) (Homo sapiens, UniProt Q14994); assay: ATG_PBREM_CIS: Factorial reporter gene assay (HepG2); assay type: cell-based; set-up: endogenous in cells; host or cells: HepG2
T2 sequence (Q14994 1-352): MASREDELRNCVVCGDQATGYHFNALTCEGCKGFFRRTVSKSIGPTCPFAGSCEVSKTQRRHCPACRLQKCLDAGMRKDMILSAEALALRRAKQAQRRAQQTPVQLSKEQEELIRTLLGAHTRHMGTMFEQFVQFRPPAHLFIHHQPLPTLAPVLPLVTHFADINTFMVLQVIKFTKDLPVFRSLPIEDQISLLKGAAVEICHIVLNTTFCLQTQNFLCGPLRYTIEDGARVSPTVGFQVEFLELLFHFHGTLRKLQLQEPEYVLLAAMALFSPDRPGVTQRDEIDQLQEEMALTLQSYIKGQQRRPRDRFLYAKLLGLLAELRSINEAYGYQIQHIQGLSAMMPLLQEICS
Method: A multiple reporter transcription unit (MRTU) library consisting of 48 transcription factor binding sites was transfected into the HepG2 human liver hepatoma cell line. In addition to the cis-acting reporter genes (CIS), a modification of the approach was used to generate a trans-system (TRANS) with a mammalian one-hybrid assay consisting of an additional 25 MRTU library reporting the activity of nuclear receptor super-family members. […] These assays were performed by Attagene Inc. (Morrisville NC) under contract to EPA.
In addition to the cis-acting reporter genes (CIS), a modification of the approach was used to generate a trans-system (TRANS) with a mammalian one-hybrid assay consisting of an additional 25 MRTU library reporting the activity of nuclear receptor super-family members. […] Chemicals were then tested in the CIS and TRANS assays at seven concentrations starting at the MTC and followed by three-fold serial dilutions. These assays were performed by Attagene Inc. (Morrisville NC) under contract to EPA. Detailed description of the methods, data and analysis methods for this dataset will be presented in a separate publication.

[11] = target: T3, PXR (NR1I2) (Homo sapiens, UniProt O75469); assay: ATG_PXRE_CIS: Factorial reporter gene assay (HepG2); assay type: cell-based; set-up: endogenous in cells; host or cells: HepG2
T3 sequence (O75469 1-434): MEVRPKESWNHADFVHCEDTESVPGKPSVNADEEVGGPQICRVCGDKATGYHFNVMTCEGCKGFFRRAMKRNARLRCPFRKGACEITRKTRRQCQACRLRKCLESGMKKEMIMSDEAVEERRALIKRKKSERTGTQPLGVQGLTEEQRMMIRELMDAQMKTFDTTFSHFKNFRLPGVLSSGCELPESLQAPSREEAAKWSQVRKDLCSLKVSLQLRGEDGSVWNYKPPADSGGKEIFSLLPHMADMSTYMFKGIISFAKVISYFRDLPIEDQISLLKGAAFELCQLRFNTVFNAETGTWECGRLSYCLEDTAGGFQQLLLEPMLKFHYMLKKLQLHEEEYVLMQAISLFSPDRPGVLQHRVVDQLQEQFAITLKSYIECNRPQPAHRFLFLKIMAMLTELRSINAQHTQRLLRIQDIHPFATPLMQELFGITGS
Summary of the method: (§6)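 Mammalian one-hybrid trans reporters (25 MRTUs) measured ERRg, FXR and PPARg; PXRE used cis reporters from a 48-site MRTU library. Both were run in HepG2. Dosing: seven concentrations, MTC as the highest, three-fold dilution series.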

[12] = target: T4, PPARG (peroxisome proliferator-activated receptor gamma) (Homo sapiens, UniProt P37231); assay: ATG_PPARg_TRANS: Factorial reporter gene assay (HepG2); assay type: cell-based; settings: HepG2 reporter
T4 construct: expressed in transfected cells; host or cells: HepG2
T4 sequence (P37231 1-505): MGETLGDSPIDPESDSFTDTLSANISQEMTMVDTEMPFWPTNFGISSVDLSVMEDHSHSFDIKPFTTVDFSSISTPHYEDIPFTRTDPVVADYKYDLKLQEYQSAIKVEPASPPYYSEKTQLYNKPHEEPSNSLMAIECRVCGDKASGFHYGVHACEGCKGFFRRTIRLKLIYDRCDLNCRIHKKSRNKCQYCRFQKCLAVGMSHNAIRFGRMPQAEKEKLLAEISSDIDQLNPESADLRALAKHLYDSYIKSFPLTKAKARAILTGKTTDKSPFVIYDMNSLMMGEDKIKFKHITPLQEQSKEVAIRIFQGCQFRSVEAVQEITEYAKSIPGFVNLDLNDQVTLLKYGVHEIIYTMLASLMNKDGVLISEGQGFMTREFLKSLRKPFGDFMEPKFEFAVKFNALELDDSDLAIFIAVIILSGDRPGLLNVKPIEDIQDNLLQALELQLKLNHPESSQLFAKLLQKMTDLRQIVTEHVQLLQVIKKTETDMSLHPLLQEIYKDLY
Summary of the method: as §6

[13] = test system: CYP3A4; assay: CLZD_CYP3A4: Change in expression of CYP3A4 (primary human hepatocytes); assay type: cell-based; settings: 24 hr
Summary of the method: as §5

[14] = target: T3, PXR (NR1I2); assay: NVS_NR_hPXR: Human PXR Fluormone PXR (SXR) green (cell-free HTS); assay type: binding
Summary of the method: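 Responses were normalized to same-plate solvent controls as percent of neutral control. AC50 values came from Hill-equation fits of concentration-response curves.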

[15] = target: T5, PPARg (PPARG) (Homo sapiens, UniProt P37231); assay: NCGC_PPARg_Agonist: GAL4 BLAM Reporter gene assay: PPARg; assay type: cell-based; set-up: expressed in transfected cells; host or cells: HEK293; settings: agonist mode
T5 sequence (P37231 1-505): T4 sequence (P37231 1-505)
Method: as §1, §2

[16] = target: T6, PXR Human (NR1I2) (Homo sapiens, UniProt O75469); assay: NCGC_PXR_Agonist_human: GAL4 BLAM Reporter gene assay: PXR Human; assay type: cell-based; settings: agonist mode
T6 sequence (O75469 146-434 limits assumed): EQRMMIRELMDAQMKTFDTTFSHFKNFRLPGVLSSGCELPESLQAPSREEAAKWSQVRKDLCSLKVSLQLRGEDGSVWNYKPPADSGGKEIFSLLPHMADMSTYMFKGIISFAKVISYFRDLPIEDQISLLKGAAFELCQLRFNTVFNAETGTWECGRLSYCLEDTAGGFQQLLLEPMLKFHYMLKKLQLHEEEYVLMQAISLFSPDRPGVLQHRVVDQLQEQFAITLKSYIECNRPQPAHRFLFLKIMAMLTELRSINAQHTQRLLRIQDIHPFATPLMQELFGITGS
Summary of the method: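 Cell-based GAL4 beta-lactamase reporter assays run at NIH Chemical Genomics Center as part of Tox21. Curve fits required R^2 ≥0.5; values where only the highest concentration exceeded 50% activity were excluded.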

Row | SMILES | NCGC_RXRa_Agonist [1] | CLZD_ABCB1_24 [2] | CLZD_ABCB11_24 [3] | CLZD_CYP1A1_24 [4] | CLZD_CYP1A2_24 [5] | CLZD_CYP2B6_24 [6] | ATG_PPARg_TRANS [12] | CHR_Rat_Liver_1_AnyLesion ([7]; chronic study, rat liver) | CHR_Rat_Liver_2_PreneoplasticLesion ([8]; chronic study, rat liver) | CHR_Rat_Liver_3_NeoplasticLesion ([9]; chronic study, rat liver) | ATG_PBREM_CIS ([10]; HepG2 reporter) | also measured
1 | OCCOc1ccccc1 [r243] | 4.774 | – | – | – | – | – | – | – | – | – | – | –
2 | C#CCOS(=O)OC1CCCCC1Oc1ccc(C(C)(C)C)cc1 (centres unmarked) [r259] | – | 5.227 | 4.813 | 4.821 | 5.07 | 5.314 | – | – | – | – | – | CHR_Rat_Liver_1_AnyLesion ([7]; rat, chronic study): 0; CHR_Rat_Liver_2_PreneoplasticLesion ([8]; rat, chronic study): 0; CHR_Rat_Liver_3_NeoplasticLesion ([9]; rat, chronic study): 0; ATG_PBREM_CIS ([10]; HepG2): 5.854; ATG_PXRE_CIS ([11]; HepG2): 6.18
3 | COC(=O)N(OC)c1ccccc1COc1ccn(-c2ccc(Cl)cc2)n1 [r270] | – | 5.275 | 5.366 | 6.198 | 6.309 | – | 6.119 | 6 | 0 | 0 | 5.658 | CLZD_CYP3A4_24 [13]: 5.335; NVS_NR_hPXR [14]: 5.183; ATG_PXRE_CIS ([11]; HepG2 reporter): 5.62
4 | Fc1ccc(Oc2ccnc3cc(Cl)cc(Cl)c23)cc1 [r277] | – | – | – | 5.128 | 5.172 | 4.999 | 5.18 | 0 | 0 | 0 | – | NCGC_PPARg_Agonist [15]: 5.174
5 | C=C(C)[C@H]1Cc2c(ccc3c2O[C@@H]2COc4cc(OC)c(OC)cc4[C@@H]2C3=O)O1 [r282] | – | 4.54 | 5.217 | 5.398 | – | 5.235 | – | 0 | 0 | 0 | 6.638 | NCGC_PXR_Agonist_human [16]: 4.77
6 | CS(=O)(=O)c1ccc(C(=O)C2C(=O)CCCC2=O)c([N+](=O)[O-])c1 [row 195] | 4.471 | – | – | – | – | – | – | – | – | – | – | CHR_Rat_Liver_1_AnyLesion ([7]; chronic rat study, liver): 6; CHR_Rat_Liver_2_PreneoplasticLesion ([8]; chronic rat study, liver): 0; CHR_Rat_Liver_3_NeoplasticLesion ([9]; chronic rat study, liver): 0
